Laboratory results as given in patent US8022099B2, “N-benzyl pyrrolidine derivatives” (Hoffmann-La Roche Inc., priority 2008, dated 2011).

Target: T1, human NK3 receptor (Homo sapiens, UniProt P29371)
T1 construct: expressed in transfected cells; host or cells: HEK293 cells (transient expression), membrane preparation
T1 sequence (P29371 1-465): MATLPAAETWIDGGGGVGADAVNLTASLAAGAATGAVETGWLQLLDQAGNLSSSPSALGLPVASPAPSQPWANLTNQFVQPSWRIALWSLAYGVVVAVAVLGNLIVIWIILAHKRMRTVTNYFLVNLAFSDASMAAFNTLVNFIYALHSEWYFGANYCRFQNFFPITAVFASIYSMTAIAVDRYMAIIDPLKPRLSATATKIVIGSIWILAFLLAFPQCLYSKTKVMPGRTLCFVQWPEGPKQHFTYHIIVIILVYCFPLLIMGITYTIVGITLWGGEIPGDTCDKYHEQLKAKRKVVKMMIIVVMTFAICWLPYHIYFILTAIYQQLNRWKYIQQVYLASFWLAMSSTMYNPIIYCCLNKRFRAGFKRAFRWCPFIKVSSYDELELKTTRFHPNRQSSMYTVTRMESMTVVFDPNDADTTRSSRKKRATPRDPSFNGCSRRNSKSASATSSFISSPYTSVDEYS
Assay: [3H]SR142801 competition binding assay
Conditions: hNK3 receptor binding, [3H]SR142801, membranes from HEK293 cells transiently expressing recombinant human NK3 receptor
Description: [^3H]SR142801 Competition Binding Assay
hNK3 receptor binding experiment were performed using [^3H]SR142801 (Catalog No. TRK1035, specific activity: 74.0 Ci/mmol, Amersham, GE Healthcare UK limited, Buckinghamshire, UK) and membrane isolated from HEK293 cells transiently expressing recombinant human NK3 receptor. After thawing, the membrane homogenates were centrifuged at 48,000×g for 10 min at 4° C., the pellets were resuspended in the 50 mM Tris-HCl, 4 mM MnCl2, 1 μM phosphoramidon, 0.1% BSA binding buffer at pH 7.4 to a final assay concentration of 5 μg protein/well. For inhibition experiments, membranes were incubated with [^3H]SR142801 at a concentration equal to KD value of radioligand and 10 concentrations of the inhibitory compound (0.0003-10 μM) (in a total reaction volume of 500 μl) for 75 min at room temperature (RT). At the end of the incubation, membranes were filtered onto unitfilter (96-well white microplate with bonded GF/C filter preincubated 1 h in 0.3% PEI+0.3% BSA, Packard BioScience, Meriden, Conn.) with a Filtermate 196 harvester (Packard BioScience) and washed 4 times with ice-cold 50 mM Tris-HCl, pH 7.4 buffer. Nonspecific binding was measured in the presence of 10 μM SB222200 for both radioligands. The radioactivity on the filter was counted (5 min) on a Packard Top-count microplate scintillation counter with quenching correction after addition of 45 μl of microscint 40 (Canberra Packard S. A., Zürich, Switzerland) and shaking for 1 h. Inhibition curves were fitted according to the Hill equation: y=100/(1+(x/IC50)^nH), where nH=slope factor using Excel-fit 4 software (Microsoft). IC50 values were derived from the inhibition curve and the affinity constant (Ki) values were calculated using the Cheng-Prussoff equation Ki=IC50/(1+[L]/KD) where [L] is the concentration of radioligand and KD is its dissociation constant at the receptor, derived from the saturation isotherm. All experiments were performed in duplicate and the mean±standard error (SEM) of the individual Ki values was calculated.

Structure (SMILES)	Ki [nM]
CN(C)[C@@H]1CCN(C(=O)N2C[C@H](c3ccc(Cl)c(Cl)c3)[C@@H](N(C)Cc3ccc(C(F)(F)F)c(F)c3)C2)C1 (mixture of isomers) [Example 57, {(3SR,4RS)-3-(3,4-Dichloro-phenyl)-4-[(3-fluoro-4-trifluoromethyl-benzyl)-methyl-amino]-pyrrolidin-1-yl}-((R)-3-dimethylamino-pyrrolidin-1-yl)-methanone]	74.8
CC(=O)N[C@@H]1CCN(CC(=O)N2C[C@H](c3ccc(Cl)c(Cl)c3)[C@@H](N(C)Cc3ccc(C(F)(F)F)c(F)c3)C2)C1 (mixture of isomers) [Example 134, N-[(R)-1-(2-{(3SR,4RS)-3-(3,4-Dichloro-phenyl)-4-[(3-fluoro-4-trifluoromethyl-benzyl)-methyl-amino]-pyrrolidin-1-yl}-2-oxo-ethyl)-pyrrolidin-3-yl]-acetamide]	43.2
C[C@H]1CN(CC(=O)N2C[C@H](c3ccc(Cl)c(Cl)c3)[C@@H](N(C)Cc3ccc(C(F)(F)F)c(F)c3)C2)CCN1 (mixture of isomers) [Example 140, 1-{(3SR,4RS)-3-(3,4-Dichloro-phenyl)-4-[(3-fluoro-4-trifluoromethyl-benzyl)-methyl-amino]-pyrrolidin-1-yl}-2-((S)-3-methyl-piperazin-1-yl)-ethanone]	47.9
C[C@@H]1CN(CC(=O)N2C[C@H](c3ccc(Cl)c(Cl)c3)[C@@H](N(C)Cc3ccc(C(F)(F)F)c(F)c3)C2)CCN1 (mixture of isomers) [Example 141, 1-{(3SR,4RS)-3-(3,4-Dichloro-phenyl)-4-[(3-fluoro-4-trifluoromethyl-benzyl)-methyl-amino]-pyrrolidin-1-yl}-2-((R)-3-methyl-piperazin-1-yl)-ethanone]	59.7
CN(Cc1ccc(C(F)(F)F)c(F)c1)[C@H]1CN(C(=O)N2CCN(S(C)(=O)=O)CC2)C[C@@H]1c1ccccc1 (racemic) [Example 17, {(3RS,4SR)-3-[(3-Fluoro-4-trifluoromethyl-benzyl)-methyl-amino]-4-phenyl-pyrrolidin-1-yl}-(4-methanesulfonyl-piperazin-1-yl)-methanone]	90.9
CN(Cc1ccc(Cl)c(Cl)c1)[C@H]1CN(C(=O)N2CCN(S(C)(=O)=O)CC2)C[C@@H]1c1ccc(Cl)cc1 (racemic) [Example 19, {(3SR,4RS)-3-(4-Chloro-phenyl)-4-[(3,4-dichloro-benzyl)-methyl-amino]-pyrrolidin-1-yl}-(4-methanesulfonyl-piperazin-1-yl)-methanone]	80.7
CN(Cc1ccc(Cl)cc1)[C@H]1CN(C(=O)N2CCN(S(C)(=O)=O)CC2)C[C@@H]1c1ccc(Cl)cc1 (racemic) [Example 23, [(3RS,4SR)-3-[(4-Chloro-benzyl)-methyl-amino]-4-(4-chloro-phenyl)-pyrrolidin-1-yl]-(4-methanesulfonyl-piperazin-1-yl)-methanone]	91
CN(Cc1ccc(C#N)cc1)[C@H]1CN(C(=O)N2CCN(S(C)(=O)=O)CC2)C[C@@H]1c1ccc(Cl)cc1 (racemic) [Example 26, 4-({[(3RS,4SR)-4-(4-Chloro-phenyl)-1-(4-methanesulfonyl-piperazine-1-carbonyl)-pyrrolidin-3-yl]-methyl-amino}-methyl)-benzonitrile]	82.5
CN(Cc1ccc(-c2ccccc2)cc1)[C@H]1CN(C(=O)N2CCN(S(C)(=O)=O)CC2)C[C@@H]1c1ccc(Cl)cc1 (racemic) [Example 27, [(3RS,4SR)-3-(Biphenyl-4-ylmethyl-methyl-amino)-4-(4-chloro-phenyl)-pyrrolidin-1-yl]-(4-methanesulfonyl-piperazin-1-yl)-methanone]	78
CN(Cc1ccc(Cl)c(F)c1)[C@H]1CN(C(=O)N2CCN(S(C)(=O)=O)CC2)C[C@@H]1c1ccc(Cl)cc1 (racemic) [Example 29, [(3RS,4SR)-3-[(4-Chloro-3-fluoro-benzyl)-methyl-amino]-4-(4-chloro-phenyl)-pyrrolidin-1-yl]-(4-methanesulfonyl-piperazin-1-yl)-methanone]	69.9
CN(Cc1ccc(Cl)c(Cl)c1)[C@H]1CN(C(=O)N2CCN(S(C)(=O)=O)CC2)C[C@@H]1c1ccc(Cl)c(Cl)c1 (racemic) [Example 32]	33.3
CN(Cc1ccc(Cl)cc1)[C@H]1CN(C(=O)N2CCN(S(C)(=O)=O)CC2)C[C@@H]1c1ccc(Cl)c(Cl)c1 (racemic) [Example 33, [(3RS,4SR)-3-[(4-Chloro-benzyl)-methyl-amino]-4-(3,4-dichloro-phenyl)-pyrrolidin-1-yl]-(4-methanesulfonyl-piperazin-1-yl)-methanone]	33.6
CN(Cc1ccc(F)c(F)c1)[C@H]1CN(C(=O)N2CCN(S(C)(=O)=O)CC2)C[C@@H]1c1ccc(Cl)c(Cl)c1 (racemic) [Example 36, {(3SR,4RS)-3-(3,4-Dichloro-phenyl)-4-[(3,4-difluoro-benzyl)-methyl-amino]-pyrrolidin-1-yl}-(4-methanesulfonyl-piperazin-1-yl)-methanone]	52.6

Stronger by Ki, values ahead:

Ki [nM]	Structure (SMILES)
15.4	C[C@H]1CN(C(=O)N2C[C@H](c3ccc(Cl)c(Cl)c3)[C@@H](N(C)Cc3ccc(C(F)(F)F)c(F)c3)C2)CCN1S(C)(=O)=O (mixture of isomers) [Example 59, {(3SR,4RS)-3-(3,4-Dichloro-phenyl)-4-[(3-fluoro-4-trifluoromethyl-benzyl)-methyl-amino]-pyrrolidin-1-yl}-((S)-4-methanesulfonyl-3-methyl-piperazin-1-yl)-methanone]
3.6	C[C@@H]1CN(C(=O)N2C[C@H](c3ccc(Cl)c(Cl)c3)[C@@H](N(C)Cc3ccc(C(F)(F)F)c(F)c3)C2)CCN1S(C)(=O)=O (mixture of isomers) [Example 60, {(3SR,4RS)-3-(3,4-Dichloro-phenyl)-4-[(3-fluoro-4-trifluoromethyl-benzyl)-methyl-amino]-pyrrolidin-1-yl}-((R)-4-methanesulfonyl-3-methyl-piperazin-1-yl)-methanone]
23.2	CC(=O)N[C@H]1CCN(CC(=O)N2C[C@H](c3ccc(Cl)c(Cl)c3)[C@@H](N(C)Cc3ccc(C(F)(F)F)c(F)c3)C2)C1 (mixture of isomers) [Example 133, N-[(S)-1-(2-{(3SR,4RS)-3-(3,4-Dichloro-phenyl)-4-[(3-fluoro-4-trifluoromethyl-benzyl)-methyl-amino]-pyrrolidin-1-yl}-2-oxo-ethyl)-pyrrolidin-3-yl]-acetamide]
25.1	CN(Cc1ccc(C(F)(F)F)c(F)c1)[C@H]1CN(C(=O)CN2C[C@@H]3C[C@@H]2CO3)C[C@@H]1c1ccc(Cl)c(Cl)c1 (mixture of isomers) [Example 148, 1-{(3SR,4RS)-3-(3,4-Dichloro-phenyl)-4-[(3-fluoro-4-trifluoromethyl-benzyl)-methyl-amino]-pyrrolidin-1-yl}-2-(1S,4R)-2-oxa-5-aza-bicyclo[2.2.1]hept-5-yl-ethanone]
28.4	CN(Cc1ccc(C(F)(F)F)c(F)c1)[C@H]1CN(C(=O)N2CCN(S(C)(=O)=O)CC2)C[C@@H]1c1ccc(Cl)cc1 (racemic) [Example 30, {(3SR,4RS)-3-(4-Chloro-phenyl)-4-[(3-fluoro-4-trifluoromethyl-benzyl)-methyl-amino]-pyrrolidin-1-yl}-(4-methanesulfonyl-piperazin-1-yl)-methanone]
8.3	CN(Cc1ccc(C(F)(F)F)c(F)c1)[C@H]1CN(C(=O)N2CCN(S(C)(=O)=O)CC2)C[C@@H]1c1ccc(Cl)c(Cl)c1 (racemic) [Example 31, {(3SR,4RS)-3-(3,4-Dichloro-phenyl)-4-[(3-fluoro-4-trifluoromethyl-benzyl)-methyl-amino]-pyrrolidin-1-yl}-(4-methanesulfonyl-piperazin-1-yl)-methanone]
32.2	CN(Cc1ccc(C#N)cc1)[C@H]1CN(C(=O)N2CCN(S(C)(=O)=O)CC2)C[C@@H]1c1ccc(Cl)c(Cl)c1 (racemic) [Example 34, 4-({[(3RS,4SR)-4-(3,4-Dichloro-phenyl)-1-(4-methanesulfonyl-piperazine-1-carbonyl)-pyrrolidin-3-yl]-methyl-amino}-methyl)-benzonitrile]
